In patent publication US11440909B2, “10H-phenothiazine ferroptosis inhibitor as well as the preparative method and the use thereof” (CHENGDU HENGHAO INVESTMENT CO. LIMITED, priority 2018, dated 2022):
pEC50: −log10 of the molar value. Read-outs that look alike come from different tables or passages of the source.

Test system: fibrosarcoma cell line HT1080
Assay: Ferroptosis screening model (MTT method), Erastin-induced ferroptosis
Type: cell-based, human
Settings: 72 h, average of three tests, read-out: EC50
Description: The screening model for ferroptosis mainly used MTT method. First, the fibrosarcoma cell line HT1080 was cultured in a dish, and the cells in the logarithmic growth phase were inoculated into a 96-well plate in a certain number (3000-10000 cells/well), 100 μL per well, and then the plate was put in an 5% CO2 incubator at 37° C., to allow the cells to adhere. After 24 h, 100 μL compound solution at a certain concentration prepared in the designated medium and ferroptosis inducer Erastin (with a final concentration of […]) were added, setting 3 replicate wells for each compound to ensure the accuracy of the results, and a negative control group, a positive control group (Fer-15 μM), a blank control group and a solvent control group were included. After addition of drugs, the plate was placed in an incubator and cultivated for 72 h. On the day of MTT experiment, MTT test solution (5 mg/mL MTT solution dissolved in physiological saline, and stored in the dark at 4° C.) was pre-prepared and 20 μL MTT solution was added to each well, then the plate was put in an incubator and continued to incubate for 2-4 h. After that, 50 μL of 20% SDS solution (dissolved in MiliiQ water, added with 1% concentrated hydrochloric acid) was added to each well and kept in an incubator overnight. On the next day, the absorbance at 570 nm was measured with a microplate reader, to calculate the inhibition rate of drugs on ferroptosis. Generally, the absorbance value of the control group should be in the range of 0.8-1.2 as a normal value.
GraphPadPrism5 software was used to fit the change curve of inhibition rate and calculate the EC50.

[1] = HT1080, ferroptosis inducer Erastin
[2] = Homo sapiens, HT-1080, 72 h, HT1080, ferroptosis inducer Erastin

| pEC50 [2] | SMILES | also measured |
| --- | --- | --- |
| 7.96 | C=C(c1cccc(C(F)F)c1)c1ccc2c(c1)Nc1ccccc1S2 [Compound B34, 2-(1-(3-(difluoromethyl)phenyl)ethenyl)-10H-phenothiazine] |  |
| 7.39 | C=C(c1cccc(-c2ccccc2)c1)c1ccc2c(c1)Nc1ccccc1S2 [Compound B29, 2-(1-([1,1′-diphenyl]-3-yl)ethenyl)-10H-phenothiazine] |  |
| 7.47 | C=C(c1ccc(S(=O)(=O)N2CCOCC2)cc1)c1ccc2c(c1)Nc1ccccc1S2 [Compound B57, 4-((4-(1-(10H-phenothiazin-2-yl)ethenyl)phenyl)sulfonyl)morpholine] |  |
| 7.07 | CC(c1ccc2c(c1)Nc1ccccc1S2)S(=O)(=O)N1CCN(CCc2ccccc2)CC1 (centres unmarked) [Compound C9, 2-(1-((4-phenethylpiperazin-1-yl)sulfonyl)ethyl)-10H-phenothiazine] |  |
| 7.46 | C=C(c1ccc([N+](=O)[O-])c(C)c1)c1ccc2c(c1)Nc1ccccc1S2 [Compound B38, 2-(1-(3-methyl-4-nitrophenyl)ethenyl)-10H-phenothiazine] |  |
| 6.74 | CC(c1ccc2c(c1)Nc1ccccc1S2)S(=O)(=O)N1CCN(c2ccc(C#N)cc2)CC1 (centres unmarked) [Compound C53, 4-(4-((1-(10H-phenothiazin-2-yl)ethyl)sulfonyl)piperazin-1-yl)benzonitrile] |  |
| 7.29 | C=C(c1cccc(C(=O)OC)c1)c1ccc2c(c1)Nc1ccccc1S2 [Compound B31, methyl 3-(1-(10H-phenothiazin-2-yl)ethenyl)benzoic acid] |  |
| 8.00 | C=C(c1ccc(NC(N)=O)cc1)c1ccc2c(c1)Nc1ccccc1S2 [Compound B10, N-(4-(1-(10H-phenothiazin-2-yl)ethenyl)phenyl)urea] |  |
| 7.02 | CC(c1ccc2c(c1)Nc1ccccc1S2)S(=O)(=O)N1CCC(O)(c2ccc(Cl)cc2)CC1 (centres unmarked) [Compound C30, 1-((1-(10H-phenothiazin-2-yl)ethyl)sulfonyl)-4-(4-chlorophenyl)-4-piperidinol] |  |
| 7.51 | C=C(c1cccc(C)c1)c1ccc2c(c1)Nc1ccccc1S2 [Compound B24, 2-(1-(m-methylphenyl)ethenyl)-10H-phenothiazine] |  |
| 7.66 | C=C(c1ccc(S(=O)(=O)NCC2CCOCC2)cc1)c1ccc2c(c1)Nc1ccccc1S2 [Compound B56, 4-(1-(10H-phenothiazin-2-yl)ethenyl)-N-((tetrahydro-2H-pyran-4-yl)methyl)Benzenesulfonamide] |  |
| 7.89 | C=C(c1ccc(N2CCOCC2)nc1)c1ccc2c(c1)Nc1ccccc1S2 [Compound B45, 4-(5-(1-(10H-phenothiazin-2-yl)ethenyl)pyridin-2-yl)morpholine] |  |
| 6.04 | C=C(c1cc(C(C)(C)C)cc(C(C)(C)C)c1)c1ccc2c(c1)Nc1ccccc1S2 [Compound B41, 2-(1-(3,5-di-t-butylphenyl)ethenyl)-10H-phenothiazine] |  |
| 7.92 | C=C(c1cccc(S(=O)(=O)NC2CCOCC2)c1)c1ccc2c(c1)Nc1ccccc1S2 [Compound B55, 3-(1-(10H-phenothiazin-2-yl)ethenyl)-N-(tetrahydro-2H-pyran-4-yl)benzenesulfonamide] |  |
| 7.49 | C=C(c1ccc(C(=O)OC)cc1)c1ccc2c(c1)Nc1ccccc1S2 [Compound B2, methyl 4-(1-(10H-phenothiazin-2-yl)ethenyl)benzoic acid] |  |
| 6.65 | CC1CCN(S(=O)(=O)C(C)c2ccc3c(c2)Nc2ccccc2S3)CC1 (centres unmarked) [Compound C45, 2-(1-((4-methylpiperidin-1-yl)sulfonyl)ethyl)-10H-phenothiazine] |  |
| 7.80 | C=C(c1cccc(C(C)(C)C)c1)c1ccc2c(c1)Nc1ccccc1S2 [Compound B25, 2-(1-(3-t-butylphenyl)ethenyl)-10H-phenothiazine] |  |
| 7.80 | C=C(c1cccc(C(N)=O)c1)c1ccc2c(c1)Nc1ccccc1S2 [Compound B26, 3-(1-(10H-phenothiazin-2-yl)ethenyl)benzamide] |  |
| 7.17 | CC(c1ccc2c(c1)Nc1ccccc1S2)S(=O)(=O)N1CCOCC1 (centres unmarked) [Compound C1, 4-((1-(10H-phenothiazin-2-yl)ethyl)sulfonyl)morpholine] |  |
| 8.05 | CC(c1ccc2c(c1)Nc1ccccc1S2)S(=O)(=O)N1CCCN(C)CC1 (centres unmarked) [Compound C3, 2-(1-((4-methyl-1,4-homopiperazin-1-yl)sulfonyl)ethyl)-10H-phenothiazine] |  |
| 6.88 | CC(=O)N1CCN(S(=O)(=O)C(C)c2ccc3c(c2)Nc2ccccc2S3)CC1 (centres unmarked) [Compound C15, 1-(4-((1-(10H-phenothiazin-2-yl)ethyl)sulfonyl)piperazin-1-yl)-1-ethanone] |  |
| 6.59 | CC(c1ccc2c(c1)Nc1ccccc1S2)S(=O)(=O)N1CCCC1 (centres unmarked) [Compound C21] |  |
| 7.46 | CC1CN(S(=O)(=O)C(C)c2ccc3c(c2)Nc2ccccc2S3)CC(C)N1 (centres unmarked) [Compound C48, 2-(1-((3,5-dimethylpiperazin-1-yl)sulfonyl)ethyl)-10H-phenothiazine] |  |

More lines, now with the values behind:

| SMILES | pEC50 [2] | also measured |
| --- | --- | --- |
| C=C(c1cnc(N2CCOCC2)nc1)c1ccc2c(c1)Nc1ccccc1S2 [Compound C51, 4-(5-(1-(10H-phenothiazin-2-yl)ethenyl)pyrimidin-2-yl)morpholine] |  | pEC50 [1]: 6.84 |
| CCOc1ccc(C(C)c2ccc3c(c2)Nc2ccccc2S3)cc1 (centres unmarked) [Compound A31, 2-(1-(4-ethoxylphenyl)ethyl)-10H-phenothiazine] | 7.77 |  |
| COc1cc(C(C)c2ccc3c(c2)Nc2ccccc2S3)ccc1Cl (centres unmarked) [Compound A50, 2-(1-(4-chloro-3-methoxylphenyl)ethyl)-10H-phenothiazine] | 7.60 |  |
| CC(c1ccc2c(c1)Nc1ccccc1S2)S(=O)(=O)N1CCN(C(=O)c2ccc3c(c2)OCCO3)CC1 (centres unmarked) [Compound C19, (4-((1-(10H-phenothiazin-2-yl)ethyl)sulfonyl)piperazin-1-yl)(2,3-dihydrobenzo[b][1,4]dioxane-6-yl)ketone] |  | pEC50 [1]: 6.89 |
| COC(=O)c1ccc(C(C)c2ccc3c(c2)Nc2ccccc2S3)cc1 (centres unmarked) [Compound A36, 4-(1-(10H-phenothiazin-2-yl)ethyl)benzoic acid methyl ester] | 7.89 |  |
| CC(c1cccc(OC(F)(F)F)c1)c1ccc2c(c1)Nc1ccccc1S2 (centres unmarked) [Compound A17, 2-(1-(3-(trifluoromethoxyl)phenyl)ethyl)-10H-phenothiazine] | 7.89 |  |
| CC(c1ccc2c(c1)Nc1ccccc1S2)S(=O)(=O)N1C2CCC1CC(O)C2 (centres unmarked) [Compound C8, 8-((1-(10H-phenothiazin-2-yl)ethyl)sulfonyl)-8-azabicyclo[3.2.1]-3-octanol] | 7.34 |  |
| CC(C)Oc1ccc(C(C)c2ccc3c(c2)Nc2ccccc2S3)cc1 (centres unmarked) [Compound A33, 2-(1-(4-isopropoxylphenyl)ethyl)-10H-phenothiazine] |  | pEC50 [1]: 7.77 |
| CCOc1cccc(C(C)c2ccc3c(c2)Nc2ccccc2S3)c1 (centres unmarked) [Compound A11, 2-(1-(3-ethoxylphenyl)ethyl)-10H-phenothiazine] | 7.72 |  |
| CC(c1cccc(I)c1)c1ccc2c(c1)Nc1ccccc1S2 (centres unmarked) [Compound A4, 2-(1-(3-iodophenyl)ethyl)-10H-phenothiazine] | 8.30 |  |
| CC(c1ccc(C#N)cc1)c1ccc2c(c1)Nc1ccccc1S2 (centres unmarked) [Compound A22, 4-(1-(10H-phenothiazin-2-yl)ethyl)benzonitrile] | 8.22 |  |
| COc1ccccc1N1CCN(S(=O)(=O)C(C)c2ccc3c(c2)Nc2ccccc2S3)CC1 (centres unmarked) [Compound C49, 2-(1-((4-(2-methoxylphenyl)piperazin-1-yl)sulfonyl)ethyl)-10H-phenothiazine] |  | pEC50 [1]: 6.64 |
| CC(c1ccc(OCc2ccccc2)cc1)c1ccc2c(c1)Nc1ccccc1S2 (centres unmarked) [Compound A35, 2-(1-(4-(benzyloxyl)phenyl)ethyl)-10H-phenothiazine] | 7.85 |  |
| CC(c1ccc2c(c1)Nc1ccccc1S2)C1CCCCC1 (centres unmarked) [Compound A76, 2-(1-cyclohexylethyl)-10H-phenothiazine] | 8.30 |  |
| CCc1ccc(C(C)c2ccc3c(c2)Nc2ccccc2S3)cc1 (centres unmarked) [Compound A24, 2-(1-(4-ethylphenyl)ethyl)-10H-phenothiazine] | 7.70 |  |
| C=C(c1ccc2c(c1)Nc1ccccc1S2)c1cc(OC)c(OC)c(OC)c1 [Compound B42, 2-(1-(3,4,5-trimethoxylphenyl)ethenyl)-10H-phenothiazine] |  | pEC50 (Homo sapiens, HT-1080, HT1080, ferroptosis inducer Erastin): 7.35 |
| CC(c1ccccc1)c1ccc2c(c1)Nc1ccccc1S2 (centres unmarked) [Compound B1, 2-(1-phenylethyl)-10H-phenothiazine] |  | pEC50 [1]: 8.00 |
| CC(c1ccc2c(c1)Nc1ccccc1S2)c1ccc(F)c(C(F)(F)F)c1 (centres unmarked) [Compound A41, 2-(1-(4-fluoro-3-(trifluoromethyl)phenyl)ethyl)-10H-phenothiazine] | 7.74 |  |
| CC(c1ccc(F)c(Cl)c1)c1ccc2c(c1)Nc1ccccc1S2 (centres unmarked) [Compound A40, 2-(1-(3-chloro-4-fluorophenyl)ethyl)-10H-phenothiazine] | 8.30 |  |
| CCCCc1ccc(C(C)c2ccc3c(c2)Nc2ccccc2S3)cc1 (centres unmarked) [Compound A27, 2-(1-(4-butylphenyl)ethyl)-10H-phenothiazine] | 7.19 |  |
| COC(=O)c1cc(F)cc(C(C)c2ccc3c(c2)Nc2ccccc2S3)c1 (centres unmarked) [Compound A63, 3-(1-(10H-phenothiazin-2-yl)ethyl)-5-fluorobenzoic acid methyl ester] | 7.51 |  |
